≈ marks a conversion by molar mass, not a printed value.
What was measured:
[1] = Half life in CD-1 mouse at 5 mg/kg, iv administered as DMSO/PEG400 formulation measured upto 24 hrs by LC-MS/MS analysis; format: ADME, organism-based; conditions: in vivo
[2] = Solubility of compound in water at 0.1 M HCl at pH 1 by LC-UV analysis; format: physicochemical; conditions: 0.1 M HCl in water
[3] = test system: Mycobacterium tuberculosis; test: Antimycobacterial activity against Mycobacterium tuberculosis H37Ra ATCC 25177 assessed as bacterial growth inhibition incubated for 6 days under normoxic condition by resazurin microtiter assay; format: functional; conditions: H37Ra ATCC 25177, 144 h, time 6 day
[4] = AUC(0 to 24 hrs) in CD-1 mouse at 20 mg/kg, po administered as DMSO/PEG400 formulation measured upto 24 hrs by LC-MS/MS analysis; format: ADME, organism-based; design: dose 20 mg/kg, time < 24 hrs, route po; conditions: in vivo
[5] = Plasma protein binding in human; format: ADME, cell-free; conditions: read-out: PPB (converted)
[6] = Stability in mouse plasma assessed as compound remaining measured after 2 hrs; format: ADME, cell-free; conditions: read-out: Stability
[7] = Solubility of compound in water at pH 7 by LC-UV analysis; format: physicochemical
[8] = Cmax in CD-1 mouse at 20 mg/kg, po administered as DMSO/PEG400 formulation measured upto 24 hrs by LC-MS/MS analysis; format: ADME, organism-based; design: dose 20 mg/kg, time < 24 hrs, route po; conditions: in vivo
[9] = Metabolic stability in mouse microsomes assessed as compound remaining measured after 2 hrs; format: ADME, Microsome; conditions: read-out: Stability
[10] = Plasma protein binding in mouse; format: ADME, cell-free; conditions: read-out: PPB (converted)
Mycobacterium avium = test: Antimycobacterial activity against Mycobacterium avium ATCC 25291 assessed as bacterial growth inhibition incubated for 6 days under normoxic condition by resazurin microtiter assay; format: functional; conditions: ATCC 25291, 144 h, time 6 day
Trypanosoma cruzi [11] = test: Antitrypanosomal activity against Trypanosoma cruzi Tulahuen amastigotes infected in mouse 3T3 cells assessed as reduction in parasite growth at Emax concentration incubated for 48 hrs by […] staining based analysis; format: functional; design: scale not given: the % may be the effect or the level left
[12] = Volume of distribution at steady state in CD-1 mouse at 5 mg/kg, iv administered as DMSO/PEG400 formulation measured upto 24 hrs by LC-MS/MS analysis; format: ADME, organism-based; conditions: in vivo, read-out: Vdss
[13] = Cytotoxicity against mouse 3T3 cells; format: toxicity, cell-based; conditions: NIH3T3 cells
[14] = Stability in human plasma assessed as compound remaining measured after 2 hrs; format: ADME, cell-free; conditions: read-out: Stability
[15] = Tmax in CD-1 mouse at 20 mg/kg, po administered as DMSO/PEG400 formulation measured upto 24 hrs by LC-MS/MS analysis; format: ADME, organism-based; conditions: in vivo
Trypanosoma cruzi [16] = test: Antitrypanosomal activity against Trypanosoma cruzi Tulahuen amastigotes infected in mouse 3T3 cells assessed as inhibition of parasite growth incubated for 48 hrs by […] staining based analysis; format: functional, organism-based; conditions: for IC90: NIH3T3, time 48 hrs
[17] = Oral bioavailability in CD-1 mouse at 20 mg/kg administered as DMSO/PEG400 formulation measured upto 24 hrs by LC-MS/MS analysis; format: ADME, organism-based; conditions: in vivo
[18] = Half life in CD-1 mouse at 20 mg/kg, po administered as DMSO/PEG400 formulation measured upto 24 hrs by LC-MS/MS analysis; format: ADME, organism-based; conditions: in vivo
[19] = Toxicity in BALB/c mouse infected with Mycobacterium tuberculosis assessed as mortality at 12.5 to 50 mg/kg, po administered 5 days per week for 3 weeks starting from day 10 post infection; format: organism-based; conditions: in vivo, 504 h, dose 12.5-50 mg/kg
[20] = Clearance in CD-1 mouse at 5 mg/kg, iv administered as DMSO/PEG400 formulation measured upto 24 hrs by LC-MS/MS analysis; format: ADME, organism-based; conditions: in vivo
[21] = Solubility of compound in water by LC-UV analysis; format: physicochemical; conditions: water; read-out: solubility
[22] = Metabolic stability in human microsomes assessed as compound remaining measured after 2 hrs; format: ADME, Microsome; conditions: read-out: Stability
[23] = test system: Mycobacterium tuberculosis; test: Antimycobacterial activity against Mycobacterium tuberculosis infected in BALB/c mouse assessed as log reduction in bacterial load in lung by measuring colony forming unit at 12.5 to 50 mg/kg, po administered 5 days per week for 3 weeks starting from day 10 post infection (reference value: 8.8 x 10^3 CFU); format: functional; conditions: dose 12.5-50 mg/kg
[24] = Toxicity in BALB/c mouse infected with Mycobacterium tuberculosis assessed as body weight loss at 12.5 to 50 mg/kg, po administered 5 days per week for 3 weeks starting from day 10 post infection; format: organism-based; conditions: in vivo, 120 h, dose 12.5-50 mg/kg, time 5 day
[25] = test system: Mycolicibacterium smegmatis; test: Antimycobacterial activity against Mycobacterium smegmatis mc2155 ATCC 700084 assessed as bacterial growth inhibition incubated for 24 hrs under normoxic condition by resazurin microtiter assay; format: functional
[26] = test system: Mycobacterium tuberculosis; test: Antimycobacterial activity against Mycobacterium tuberculosis infected in BALB/c mouse assessed as log reduction in bacterial load in lung by measuring colony forming unit at 15 mg/kg, po administered 5 days per week for 3 weeks starting from day 10 post infection (reference value: 8.8 x 10^3 CFU); format: functional
[27] = test system: Mycobacterium tuberculosis; test: Antimycobacterial activity against Mycobacterium tuberculosis H37Rv ATCC 27294 assessed as bacterial growth inhibition incubated for 5 days under normoxic condition by resazurin microtiter assay; format: functional; conditions: H37Rv ATCC 27294, 120 h, time 5 day
[28] = test system: Mycobacterium tuberculosis; test: Antimycobacterial activity against Mycobacterium tuberculosis H37Rv ATCC 27294 assessed as bacterial growth inhibition incubated for 5 days under hypoxic condition by resazurin microtiter assay; format: functional; conditions: H37Rv ATCC 27294, 120 h, time 5 day
[29] = AUC(0 to 8 hrs) in CD-1 mouse at 20 mg/kg, po administered as DMSO/PEG400 formulation measured upto 24 hrs by LC-MS/MS analysis; format: ADME, organism-based; design: dose 20 mg/kg, time < 24 hrs, route po; conditions: in vivo
[30] = test system: Mycobacterium tuberculosis; test: Antimycobacterial activity against Mycobacterium tuberculosis infected in BALB/c mouse assessed as log reduction in bacterial load in lung by measuring colony forming unit at 12.5 mg/kg, po administered 5 days per week for 3 weeks starting from day 10 post infection (reference value: 8.8 x 10^3 CFU); format: functional
[31] = test system: Mycobacterium tuberculosis; test: Antimycobacterial activity against Mycobacterium tuberculosis infected in BALB/c mouse assessed as log reduction in bacterial load in lung by measuring colony forming unit at 50 mg/kg, po administered 5 days per week for 3 weeks starting from day 10 post infection (reference value: 8.8 x 10^3 CFU); format: functional
[32] = test system: Mycobacterium tuberculosis; test: Substrate activity at Mycobacterium tuberculosis Ddn expressed in Escherichia coli BL21 (DE3) assessed as oxidation of F420H2 by measuring Km by spectrophotometric analysis
[33] = test system: Mycobacterium tuberculosis; test: Substrate activity at Mycobacterium tuberculosis Ddn expressed in Escherichia coli BL21 (DE3) assessed as oxidation of F420H2 by measuring Kcat by spectrophotometric analysis
[34] = test system: Mycobacterium tuberculosis; test: Antimycobacterial activity against Mycobacterium tuberculosis infected in BALB/c mouse assessed as log reduction in bacterial load in lung by measuring colony forming unit at 25 mg/kg, po administered 5 days per week for 3 weeks starting from day 10 post infection (reference value: 8.8 x 10^3 CFU); format: functional
[35] = test system: Mycobacterium tuberculosis; test: Substrate activity at Mycobacterium tuberculosis Ddn expressed in Escherichia coli BL21 (DE3) assessed as oxidation of F420H2 by measuring Kcat/Km by spectrophotometric analysis
Trypanosoma cruzi [36] = test: Antitrypanosomal activity against bioluminescent Trypanosoma cruzi CL Brener trypomastigotes infected in BALB/c mouse assessed as reduction in parasite burden at 50 mg/kg, po administered twice daily for 5 days starting from 14 days post infection and measured on 36 days post infection; format: functional; design: scale not given: the % may be the effect or the level left; conditions: time 22 day
Trypanosoma cruzi [37] = test: Antitrypanosomal activity against bioluminescent Trypanosoma cruzi CL Brener trypomastigotes infected in BALB/c mouse assessed as reduction in parasite burden at 100 mg/kg, po administered once daily for 5 days starting from 14 days post infection and measured on 36 days post infection; format: functional; design: scale not given: the % may be the effect or the level left; conditions: time 22 day
[38] = Selectivity index, ratio of CC50 for cytotoxicity against mouse 3T3 cells to IC50 for antitrypanosomal activity against Trypanosoma cruzi Tulahuen amastigotes infected in mouse 3T3 cells; format: toxicity, cell-based; conditions: read-out: Ratio CC50/IC50

| SMILES | half-life [1] [h] | MIC [3] [µg/mL] | AUC(0-t) at 24 h [4] [ng·h/mL] | fraction unbound [5] | Cmax [8] [ng/mL] | fraction unbound [10] | MIC (Mycobacterium avium) [µg/mL] | Activity (Trypanosoma cruzi [11]) [%] | Vd [12] [L/kg] | CC50 [13] [µM] | Tmax [15] [h] | IC90 (Trypanosoma cruzi [16]) [µM] | bioavailability [17] [%] | half-life [18] [h] | Activity [19] | clearance [20] [mL/min/kg] | solubility [21] [µM] | Activity [24] | MIC [25] [µg/mL] | MIC [27] [µg/mL] | further results |
| --- | --- | --- | --- | --- | --- | --- | --- | --- | --- | --- | --- | --- | --- | --- | --- | --- | --- | --- | --- | --- | --- |
| O=c1c2nc([N+](=O)[O-])cn2ccn1Cc1ccc(OC(F)(F)F)cc1 | 3.8 | 0.031 (≈ 0.0875 µM) | 38900 | < 0.01 | 3300 | < 0.01 | > 32 | 100 | 2.2 | > 73 | 5.3 | 0.72 | 98 | 4.8 | Non-Toxic | 6.36 | < 1 | Non-Toxic | > 32 |  | solubility [2]: < 1 µM; remaining at 2 h [6]: > 99%; solubility [7]: < 1 µM; remaining at 2 h [9]: > 99%; remaining at 2 h [14]: 98%; remaining at 2 h [22]: > 99%; log(activity) [23]: 0.21 |
| CO[C@H]1/C=C/O[C@@]2(C)Oc3c(C)c(O)c4c(O)c(c(/C=N/N5CCN(C)CC5)c(O)c4c3C2=O)NC(=O)/C(C)=C\C=C\[C@H](C)[C@H](O)[C@@H](C)[C@@H](O)[C@@H](C)[C@H](OC(C)=O)[C@@H]1C [RIFAMPIN] |  | < 0.016 |  |  |  |  | 4 (≈ 4.86 µM) |  |  |  |  |  |  |  |  |  |  |  | 4 (≈ 4.86 µM) | 0.005 (≈ 0.00608 µM) | log(activity) [26]: 2.7; MIC [28]: 0.08 µg/mL (≈ 0.0972 µM) |
| O=c1c2nc([N+](=O)[O-])cn2ccn1Cc1cccc(C(F)(F)F)c1 | 1.9 | ≤ 0.016 |  | 0.04 | 3400 | 0.08 | > 32 |  | 1.2 |  | 2.7 |  | 64 |  | Non-Toxic | 7.66 | 2.9 (≈ 0.981 µg/mL) | Non-Toxic | > 32 | 0.063 (≈ 0.186 µM) | AUC(0-t) at 24 h [29]: 20800 ng·h/mL; log(activity) [30]: 0.75; log(activity) [31]: 1.7; Km [32]: 9.4 µM; kcat [33]: 1.6 10^-2/s; MIC [28]: 0.25 µg/mL (≈ 0.739 µM); log(activity) [34]: 1.1; kcat/Km [35]: 1650 M⁻¹ s⁻¹ |
| O=c1c2nc([N+](=O)[O-])cn2ccn1Cc1ccc(-c2cccnc2)cc1 | 1.5 |  | 9260 |  | 4500 |  |  |  | 2.6 |  | 0.67 |  | 92 | 0.77 |  | 22.9 |  |  |  |  | Activity (Trypanosoma cruzi [36]): 99.4% |
| O=C(Cn1ccnc1[N+](=O)[O-])NCc1ccccc1 [BENZNIDAZOLE] |  |  |  |  |  |  |  | 100 |  | > 127 |  | 28 |  |  |  |  |  |  |  |  | Activity (Trypanosoma cruzi [37]): 99.3%; IC50 (Trypanosoma cruzi [16]; NIH3T3, 48 h): 7.6 µM; selectivity ratio [38]: > 17 |

Source: ChEMBL document CHEMBL5104178, “Nitroimidazopyrazinones with Oral Activity against Tuberculosis and Chagas Disease in Mouse Models of Infection” (J Med Chem, 2022)
